Values of other authors, collected in patent US7279573B2, “Amide derivatives” (Kaken Pharmaceutical Co., Ltd., priority 1997, dated 2007).

How the values were obtained:
growth hormone releasing = conditions: control compounds for pharmacophore development
[1] = human, in vivo

| Compound | growth hormone releasing activity (active/inactive) (growth hormone releasing) | oral bioavailability [1] [%] |
| --- | --- | --- |
| CC(C)(N)CC(=O)N[C@H]1CCc2ccccc2N(Cc2ccc(-c3ccccc3-c3nn[nH]n3)cc2)C1=O [L-692,428] | inactive |  |
| GHRP-6 |  | 0.3 |
